Assay results as given in patent US20260191968A1, “PROTAC DEGRADERS OF MLLT1 AND/OR MLLT3” (DARK BLUE THERAPEUTICS LTD, priority 2024, published 2026).

Tests used:
MLLT1 = biological target: T1, MLLT1 (Homo sapiens, UniProt Q03111); assay: MLLT1 degradation assay in MV4-11 cells (JESS chemiluminescent detection), three concentrations, 24 h; assay type: cell-based; conditions: with respect to DMSO control
T1 construct: host or cells: MV4-11
T1 sequence (Q03111 1-559): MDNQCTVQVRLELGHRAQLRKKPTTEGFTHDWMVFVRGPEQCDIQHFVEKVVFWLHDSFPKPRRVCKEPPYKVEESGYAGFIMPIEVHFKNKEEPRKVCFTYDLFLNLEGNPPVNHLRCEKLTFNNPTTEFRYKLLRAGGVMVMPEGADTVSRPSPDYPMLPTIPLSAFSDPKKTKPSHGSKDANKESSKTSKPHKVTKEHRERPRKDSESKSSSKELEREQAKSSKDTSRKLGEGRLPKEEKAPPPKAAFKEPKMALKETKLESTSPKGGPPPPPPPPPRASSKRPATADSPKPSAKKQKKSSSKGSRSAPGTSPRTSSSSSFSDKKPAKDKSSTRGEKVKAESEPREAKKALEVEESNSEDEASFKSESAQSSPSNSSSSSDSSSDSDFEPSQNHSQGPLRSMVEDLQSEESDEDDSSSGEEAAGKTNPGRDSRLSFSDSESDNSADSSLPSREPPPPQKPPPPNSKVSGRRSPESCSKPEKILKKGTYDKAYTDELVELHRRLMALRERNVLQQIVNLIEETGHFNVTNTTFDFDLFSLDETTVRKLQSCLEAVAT
Method in brief: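 Read-out is % MLLT1 degradation versus DMSO, from band peak areas on a JESS chemiluminescent system. Cells (MV4-11) were exposed for 24 h at 37° C to three compound levels, 10, 100 and 1000 nM, in 0.1% DMSO.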

MV4-11 cells = assay: MV4-11 cellular proliferative assay, Assay Format A (CellTiter-Glo, 120 hours); assay type: cell-based; conditions: Homo sapiens
Description: An MV4-11 proliferation assay was used to test the ability of compounds to reduce cell viability. MV4-11 cells (ATCC #CRL9591) were grown in IMDM medium (11510596, Gibco) supplemented with 10% fetal bovine serum (F7524, Gibco) and 1% Penicillin/Streptomycin (15140-122, Gibco) at 37° C. with 5% CO2. Cells were seeded in 384-well Elplasia plates (4447, Corning) at a density of 50 cells/well and treated with vehicle (DMSO) or compounds (10 serial semi-log dilutions, 30 μM as top concentration).
After 120 hours of treatment, cells were incubated for 10 min at RT with the CellTiter-Glo (CTG) reagent (G7571, Promega). Measurement of the luminescence signal was performed on a microplate reader (Ensight, PerkinElmer). CTG reagent measures the amount of ATP, which is directly proportional to the number of cells, to determine the number of viable cells in culture.
The data were analysed as follows:
where x is the measured raw signal value of a well, (cr) is the median of the measured signal values for the Central Reference (DMSO) wells on a plate, (sr) is the median of the measured signal values for the Scale Reference (reference compound) wells on a plate.
where the experimental set-up assumes the Hill parameters in certain ranges: S0~Central Reference (CR) from normalization (=Bottom), Sinf~Scale Reference (SR) from normalization (=Top), nHill~1, AC50~within the measured concentration range.

Compound | MLLT1% Degradation @ 0.01 μM (MLLT1) | MLLT1% Degradation @ 0.1 μM (MLLT1) | MLLT1% Degradation @ 1 μM (MLLT1) | IC50 (MV4-11 cells) [µM]
CN1CCC[C@H]1c1cc2cnc(NC(=O)c3ccc(CCCNc4cccc5c4C(=O)N(C4CCC(=O)NC4=O)C5=O)cc3)cc2[nH]1 (stereo partly drawn) [Example 37, 4-(3-{[2-(2,6-dioxopiperidin-3-yl)-1,3-dioxoisoindol-4-yl]amino}propyl)-N-{2-[(2S)-1-methylpyrrolidin-2-yl]-1H-pyrrolo[3,2-c]pyridin-6-yl}benzamide] | B (Category B: 50% ≤ B < 75% degradation) | A (Category A: A ≥ 75% degradation) | A (Category A: A ≥ 75% degradation) | ≤ 0.1
CN1CCC[C@@H]1c1cc2cnc(NC(=O)COCCCCNc3cccc4c3C(=O)N(C3CCC(=O)NC3=O)C4=O)cc2[nH]1 (stereo partly drawn) [Example 40, 2-(4-((2-(2,6-dioxopiperidin-3-yl)-1,3-dioxoisoindolin-4-yl)amino)butoxy)-N-(2-((R)-1-methylpyrrolidin-2-yl)-1H-pyrrolo[3,2-c]pyridin-6-yl)acetamide] | – | C (Category C: 25% ≤ C < 50% degradation) | B (Category B: 50% ≤ B < 75% degradation) | ≤ 0.1
CN1CCC[C@@H]1c1cc2cnc(NC(=O)CCCC3CCN(c4cccc5c4C(=O)N(C4CCC(=O)NC4=O)C5=O)CC3)cc2[nH]1 (stereo partly drawn) [Example 41, 4-(1-(2-(2,6-dioxopiperidin-3-yl)-1,3-dioxoisoindolin-4-yl)piperidin-4-yl)-N-(2-((R)-1-methylpyrrolidin-2-yl)-1H-pyrrolo[3,2-c]pyridin-6-yl)butanamide] | B (Category B: 50% ≤ B < 75% degradation) | B (Category B: 50% ≤ B < 75% degradation) | A (Category A: A ≥ 75% degradation) | ≤ 0.1
CN1CCC[C@@H]1c1cc2cnc(NC(=O)CCCCC3CCN(c4cccc5c4C(=O)N(C4CCC(=O)NC4=O)C5=O)CC3)cc2[nH]1 (stereo partly drawn) [Example 42, 5-(1-(2-(2,6-Dioxopiperidin-3-yl)-1,3-dioxoisoindolin-4-yl)piperidin-4-yl)-N-(2-((R)-1-methylpyrrolidin-2-yl)-1H-pyrrolo[3,2-c]pyridin-6-yl)pentanamide] | – | B (Category B: 50% ≤ B < 75% degradation) | B (Category B: 50% ≤ B < 75% degradation) | ≤ 0.1
CN1CCC[C@@H]1c1cc2cnc(NC(=O)CCCCCC3CCN(c4cccc5c4C(=O)N(C4CCC(=O)NC4=O)C5=O)CC3)cc2[nH]1 (stereo partly drawn) [Example 43, 6-(1-(2-(2,6-dioxopiperidin-3-yl)-1,3-dioxoisoindolin-4-yl)piperidin-4-yl)-N-(2-((R)-1-methylpyrrolidin-2-yl)-1H-pyrrolo[3,2-c]pyridin-6-yl)hexanamide] | – | A (Category A: A ≥ 75% degradation) | B (Category B: 50% ≤ B < 75% degradation) | ≤ 0.1
CN1CCC[C@@H]1c1cc2cnc(NC(=O)c3cccc(CCCNc4cccc5c4C(=O)N(C4CCC(=O)NC4=O)C5=O)c3)cc2[nH]1 (stereo partly drawn) [Example 45, 3-(3-((2-(2,6-dioxopiperidin-3-yl)-1,3-dioxoisoindolin-4-yl)amino)propyl)-N-(2-((R)-1-methylpyrrolidin-2-yl)-1H-pyrrolo[3,2-c]pyridin-6-yl)benzamide] | A (Category A: A ≥ 75% degradation) | A (Category A: A ≥ 75% degradation) | A (Category A: A ≥ 75% degradation) | ≤ 0.1
CN1CCC[C@@H]1c1cc2cnc(NC(=O)c3cccc(-c4cnn(CCCC5CCN(c6cccc7c6C(=O)N(C6CCC(=O)NC6=O)C7=O)CC5)c4)c3)cc2[nH]1 (stereo partly drawn) [Example 47, 3-(1-(3-(1-(2-(2,6-dioxopiperidin-3-yl)-1,3-dioxoisoindolin-4-yl)piperidin-4-yl)propyl)-1H-pyrazol-4-yl)-N-(2-((R)-1-methylpyrrolidin-2-yl)-1H-pyrrolo[3,2-c]pyridin-6-yl)benzamide] | C (Category C: 25% ≤ C < 50% degradation) | B (Category B: 50% ≤ B < 75% degradation) | A (Category A: A ≥ 75% degradation) | ≤ 0.1
CN1CCC[C@@H]1c1cc2cnc(NC(=O)c3ccc(OCC#Cc4cccc5c4CN(C4CCC(=O)NC4=O)C5=O)cc3)cc2[nH]1 (stereo partly drawn) [Example 51, 4-((3-(2-(2,6-dioxopiperidin-3-yl)-1-oxoisoindolin-4-yl)prop-2-yn-1-yl)oxy)-N-(2-((R)-1-methylpyrrolidin-2-yl)-1H-pyrrolo[3,2-c]pyridin-6-yl)benzamide] | A (Category A: A ≥ 75% degradation) | A (Category A: A ≥ 75% degradation) | A (Category A: A ≥ 75% degradation) | ≤ 0.1
CN1CCC[C@@H]1c1cc2cnc(NC(=O)c3ccc(CCC#Cc4cccc5c4CN(C4CCC(=O)NC4=O)C5=O)cc3)cc2[nH]1 (stereo partly drawn) [Example 52, 4-(4-(2-(2,6-dioxopiperidin-3-yl)-1-oxoisoindolin-4-yl)but-3-yn-1-yl)-N-(2-((R)-1-methylpyrrolidin-2-yl)-1H-pyrrolo[3,2-c]pyridin-6-yl)benzamide] | A (Category A: A ≥ 75% degradation) | A (Category A: A ≥ 75% degradation) | B (Category B: 50% ≤ B < 75% degradation) | ≤ 0.1
CN1CCC[C@@H]1c1cc2cnc(NC(=O)c3ccc(CCC#Cc4cccc5c4n(C)c(=O)n5C4CCC(=O)NC4=O)cc3)cc2[nH]1 (stereo partly drawn) [Example 53, 4-(4-(1-(2,6-dioxopiperidin-3-yl)-3-methyl-2-oxo-2,3-dihydro-1H-benzo[d]imidazol-4-yl)but-3-yn-1-yl)-N-(2-((R)-1-methylpyrrolidin-2-yl)-1H-pyrrolo[3,2-c]pyridin-6-yl)benzamide] | A (Category A: A ≥ 75% degradation) | A (Category A: A ≥ 75% degradation) | B (Category B: 50% ≤ B < 75% degradation) | ≤ 0.1
CN1CCC[C@@H]1c1cc2cnc(NC(=O)c3ccc(CCC#Cc4cccc5c4CN(C4CCC(=O)NC4=O)C5=O)cc3F)cc2[nH]1 (stereo partly drawn) [Example 54, 4-(4-(2-(2,6-dioxopiperidin-3-yl)-1-oxoisoindolin-4-yl)but-3-yn-1-yl)-2-fluoro-N-(2-((R)-1-methylpyrrolidin-2-yl)-1H-pyrrolo[3,2-c]pyridin-6-yl)benzamide] | A (Category A: A ≥ 75% degradation) | A (Category A: A ≥ 75% degradation) | B (Category B: 50% ≤ B < 75% degradation) | ≤ 0.1
CN1CCC[C@@H]1c1cc2cnc(NC(=O)c3ccc(OCCCC#Cc4cccc5c4CN(C4CCC(=O)NC4=O)C5=O)cc3)cc2[nH]1 (stereo partly drawn) [Example 56, 4-((5-(2-(2,6-dioxopiperidin-3-yl)-1-oxoisoindolin-4-yl)pent-4-yn-1-yl)oxy)-N-(2-((R)-1-methylpyrrolidin-2-yl)-1H-pyrrolo[3,2-c]pyridin-6-yl)benzamide] | A (Category A: A ≥ 75% degradation) | A (Category A: A ≥ 75% degradation) | A (Category A: A ≥ 75% degradation) | ≤ 0.1
